From US5962487A, “Antipicornaviral compounds and methods for their use and preparation” (Agouron Pharmaceuticals, Inc., priority 1997, dated 1999)

What was measured:
in vitro = format: cell-based; conditions: human, hi-hela cells
Protocol: (§1) HI-HeLa cells were infected with HRV-14 (unless otherwise noted) at a multiplicity of infection (m.o.i.) of 0.13 (virus particles/cell) or mock-infected with medium only. Infected or mock-infected cells were resuspended at 8×10^5 cells per mL and incubated with appropriate concentrations of compounds of formulas I and II. Two days later, XTT/PMS was added to test plates, and the amount of formazan produced was quantified spectrophotometrically at 450/650 nm. The EC50 was calculated as the concentration of compound that increased the percentage of formazan production in compound-treated, virus-infected cells to 50% of that produced by compound-free mock-infected cells. The 50% cytotoxic dose (CC50) was calculated as the concentration of compound that decreased the percentage of formazan produced in compound-treated, mock-infected cells to 50% of that produced in compound-free, mock-infected cells. The therapeutic index (TI) was calculated by dividing the CC50 by the EC50.
(§2) All strains of human rhinovims (HRV) for use in this assay were purchased from American Type Culture Collection (ATCC), except for HRV serotype-14, which was produced from the infectious cDNA clone, constructed and supplied to us by Dr. Roland Rueckert at the Institute for Molecular Virology, University of Wisconsin, Madison, Wis. HRV stocks were propagated, and antiviral assays were performed in HI-HeLa (ATCC). Cells were grown in Minimal Essential Medium, available from Life Technologies, with 10% fetal bovine serum.

[1] = molecular target: T1, Rhinovirus 3C protease (RVP) serotype-14 (Human rhinovirus 14, UniProt P03303); test: Inhibition of Rhinovirus Protease, serotype 14 (FRET assay); format: biochemical; conditions: for Ki: RVP serotype-14, 10 minute preincubation with 50 nM RVP prior to addition of substrate, read-out: INHIB (Ki); for kinact/KI: read-out: kobs/I
T1 construct: Recombinant Rhinovirus 3C proteases from serotypes 14, 16, 2 or 89 were prepared; made in house
T1 sequence (P03303 1538-1719): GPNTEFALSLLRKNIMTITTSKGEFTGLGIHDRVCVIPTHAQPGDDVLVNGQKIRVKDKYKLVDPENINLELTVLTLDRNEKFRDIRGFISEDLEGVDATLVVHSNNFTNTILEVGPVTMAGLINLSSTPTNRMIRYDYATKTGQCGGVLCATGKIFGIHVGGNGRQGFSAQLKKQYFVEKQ
Protocol: Stock solutions (50 mM, in DMSO) of various compounds were prepared; dilutions were in the same solvent. Recombinant Rhinovirus 3C proteases from serotypes 14, 16, 2 or 89 were prepared by the following standard chromatographic procedures: (1) ion exchange using Q Sepharose Fast Flow from Pharmacia; (2) affinity chromatography using Affi-Gel Blue from Biorad; and (3) sizing using Sephadex G-100 from Pharmacia. Assays contained 2% DMSO, 50 mM tris pH 7.6, 1 mM EDTA, a compound at the indicated concentrations, approximately 1 μM substrate, and 50-100 nM protease. For Ki determinations, the compound and the enzyme were preincubated for 10 minutes at 30° C. prior to addition of the substrate (substrate start). The kobs/I values were obtained from reactions initiated by addition of enzyme rather than substrate. RVP activity is measured in the fluorescence resonance energy transfer assay. The substrate was (N-terminal) DABCYL-(Gly-Arg-Ala-Val-Phe-Gln-Gly-Pro-Val-Gly)-EDANS. In the uncleaved peptide, the EDANS fluorescence was quenched by the proximal DABCYL moiety. When the peptide was cleaved, the quenching was relieved, and activity was measured as an increase in fluorescence signal.
In the above table, all data is for RVP serotype-14 unless otherwise noted in parentheses. All strains of human rhinovirus (HRV) were purchased from American Type Culture Collection (ATCC), except for serotype 14, which was produced from the infectious cDNA clone constructed and supplied to us by Dr. Roland Rueckert at the Institute for Molecular Virology, University of Wisconsin, Madison, Wis. The column designated INHIB represents the percent inhibition, with the concentration of the compound in μM indicated in parentheses, unless Ki was assigned as designated by (Ki), at 10 minute preincubation with 50 nM RVP prior to addition of substrate was used. The data in the column designated kobs/I was measured from progress curves in enzyme start experiments.

HRV-14 = test: Antirhinoviral HI-HeLa Cell Culture Assay (cell protection, XTT), HRV-14; format: cell-based, human rhinovirus; conditions: for TI: CC50/EC50, HRV serotype-14, 2880 min; for EC50: Rhinovirus B, HRV14, 48 h, HRV serotype-14 infected HI-HeLa cells, XTT, two days
Protocol: In the Cell Protection Assay, the ability of compounds to protect cells against HRV infection was measured by the XTT dye reduction method. This method is described in O. S. Weislow, R. Kiser, D. L. Fine, J. Bader, R. H. Shoemaker, and M. R. Boyd, J. Natl. Cancer Inst. 1989, 81, 577-586, which document is entirely incorporated herein by reference.
as §1, §2
The compounds were tested against control compounds WIN 51711, WIN 52084, and WIN 54954, all obtained from Sterling-Winthrop Pharmaceuticals, and control compound Pirodavir, obtained from Janssen Pharmaceuticals. Antiviral data obtained for the test compounds are shown in Table 2 where all data are for HRV serotype-14 unless otherwise noted in parentheses.

Row | Compound | CC50 at 48 h (in vitro) [µM] | Ki [1] [µM] | kinact/KI [1] [M⁻¹ s⁻¹] | TI (HRV-14) | EC50 (HRV-14) [µM]
1 | CCOC(=O)/C=C/[C@H](CCC(N)=O)NC(=O)C1CN(Cc2ccccc2)CCN1C(=O)[C@H](CC(C)C)NC(=O)OCc1ccccc1 (mixture of isomers) [Compound 28, Ethyl-3-(CBZ-L-Leu-DL-(4-Benzyl)-Pipz-L-Gln]-E-Propenoate] | 125 | 50 | 116 | 18 | 6.9
2 | CCOC(=O)/C=C/[C@H](CCC(N)=O)NC(=O)C1CN(S(=O)(=O)c2ccccc2)CCN1C(=O)[C@H](CC(C)C)NC(=O)OCc1ccccc1 (mixture of isomers) [Compound 29, Ethyl-3-[CBZ-L-Leu-DL-(4-Phenylsulfonyl)-Pipz-L-Gln]-E-Propenoate] | 251 |  | 45 | 5 | 46
3 | CCOC(=O)/C=C/[C@H](CCC(N)=O)NC(=O)[C@H](Cc1ccccc1)N(C)C(=O)OCc1ccccc1 [Compound 1, Ethyl-3-(CBZ-L-N-Me-Phe-L-Gln)-E-Propenoate] | 251 | > 100 | 52 | 13 | 20
4 | CCOC(=O)/C=C/[C@H](CCC(N)=O)NC(=O)[C@H](Cc1ccccc1)N(C)C(=O)[C@H](CC(C)C)NC(=O)SC1CCCC1 [Compound 5, Ethyl-3-(Cyclopentylthiocarbonyl-L-Leu-L-N-Me-Phe-L-Gln)-E-Propenoate] | 51.4 |  | 17300 | 214 | 0.24
5 | CC(C)C[C@H](NC(=O)SC1CCCC1)C(=O)N(C)[C@@H](Cc1ccccc1)C(=O)N[C@H](/C=C1\CCOC1=O)CCC(N)=O [Compound 6, 2-(Cyclopentylthiocarbonyl-L-Leu-L-N-Me-Phe-L-Gln)-E(α-Vinyl-γ-Butyrolactone)] | 151 |  | 9500 | 54 | 2.8
6 | CCSC(=O)N[C@@H](CC(C)C)C(=O)N(C)[C@@H](Cc1ccccc1)C(=O)N[C@H](/C=C/C(=O)N1CCc2ccccc21)CCC(N)=O [Compound 7, 1-(2',3'-Dihydroindolin-1-yl)-3-(Ethylthiocarbonyl-L-Leu-L-N-Me-Phe-L-Gln)-E-Propenone] | 47.9 |  | 3820 | 37 | 1.3
7 | CCSC(=O)N[C@@H](CC(C)C)C(=O)N(C)[C@@H](Cc1ccccc1)C(=O)N[C@H](/C=C1\CCOC1=O)CCC(N)=O [Compound 8, 2-(Ethylthiocarbonyl-L-Leu-L-N-Me-Phe-L-Gln)-E-(α-Vinyl-γ-Butyrolactone)] | > 320 |  | 6880 | > 32 | 10
8 | CCOC(=O)/C=C/[C@H](CCC(N)=O)NC(=O)[C@H](Cc1ccccc1)N(C)C(=O)[C@H](CCc1ccccc1)NC(=O)SCc1ccccc1 [Compound 9, Ethyl-3-(Benzylthiocarbonyl-L-hPhe-L-N-Me-Phe-L-Gln)-E-Propenoate] | 56.2 | 4.4 | 57000 | 225 | 0.25
9 | CN(C(=O)[C@H](CCc1ccccc1)NC(=O)SCc1ccccc1)[C@@H](Cc1ccccc1)C(=O)N[C@H](/C=C1\CCOC1=O)CCC(N)=O [Compound 10, 2-(Bezylthiocarbonyl-L-hPhe-L-N-Me-Phe-L-Gln)-E-(α-Vinyl-γ-Butyrolactone)] | 56.2 | 2 | 41800 | 31 | 1.8
10 | CCOC(=O)/C=C/[C@H](CCC(N)=O)NC(=O)[C@H](Cc1ccccc1)N(C)C(=O)[C@H](CC(C)C)NC(=O)SCC [Compound 11, Ethyl-3-(Ethylthiocarbonyl-L-Leu-L-N-Me-Phe-L-Gln)-E-Propenoate] | > 320 |  | 12000 | > 603 | 0.53
11 | CCSC(=O)N[C@H](C(=O)N(C)[C@@H](Cc1ccccc1)C(=O)N[C@H](/C=C1\CCOC1=O)CCC(N)=O)C(C)C [Compound 12, 2-(Ethylthiocarbonyl-L-Val-L-N-Me-Phe-L-Gln)-E-(α-Vinyl-γ-Butyrolactone)] | > 320 |  | 5070 | > 76 | 4.2
12 | CCSC(=O)N[C@@H](CC(C)C)C(=O)N(C)[C@@H](Cc1ccccc1)C(=O)N[C@H](/C=C/C(=O)N1CCOC1=O)CCC(N)=O [Compound 17, 1-[2'-Oxazolidon-3'-yl]-3-(Ethylthiocarbonyl-L-Leu-L-N-Me-Phe-L-Gln)-E-Propepone] | 53 |  | 750000 | 106 | 0.5
13 | CCOC(=O)/C=C/[C@H](CCC(N)=O)NC(=O)[C@@H]1[C@@H](c2ccccc2)CCN1C(=O)[C@H](CC(C)C)NC(=O)OCc1ccccc1 [Compound 18, Ethyl-3-[CBZ-L-Leu-L-(3R-Phenyl)-Pro-L-Gln]-E-Propenoate] | 126 | 7 | 423 | 25 | 5
14 | CCOC(=O)/C=C/[C@H](CCC(N)=O)NC(=O)[C@@H]1CCCN1C(=O)[C@H](CC(C)C)NC(=O)OCc1ccccc1 [Compound 19, Ethyl-3-(CBZ-L-Leu-L-Pro-L-Gln)-E-Propenoate] | > 320 |  | 1930 | > 6 | 50
15 | CCOC(=O)/C=C/[C@H](CCC(N)=O)NC(=O)[C@@H]1C[C@@H](OCc2ccccc2)CN1C(=O)[C@H](CC(C)C)NC(=O)OCc1ccccc1 [Compound 20, Ethyl-3-[CBZ-L-Leu-L-(4R-Benzyloxy)-Pro-L-Gln]-E-Propenoate] | 56 | 62 | 3330 | 10.3 | 5.4
16 | CCOC(=O)/C=C/[C@H](CCC(N)=O)NC(=O)[C@@H]1[C@@H](C)CCN1C(=O)[C@H](CC(C)C)NC(=O)OCc1ccccc1 [Compound 21, Ethyl-3-[CBZ-L-Leu-L-(3S-Methyl)-Pro-L-Gln]-E-Propenoate] | > 320 | 50 | 256 | > 15 | 22
17 | CON(C)C(=O)/C=C/[C@H](CCC(N)=O)NC(=O)[C@@H]1[C@@H](c2ccccc2)CCN1C(=O)[C@H](CC(C)C)NC(=O)OCc1ccccc1 [Compound 22, N-Methoxy, N-Methyl-3-[CBZ-L-Leu L-(3R-Phenyl)-Pro-L-Gln]-E-Propenamide] | > 320 |  | 100 | > 2 | 178
18 | CCOC(=O)C=CC(CCC(N)=O)NC(=O)C1CC(OC(C)(C)C)CN1C(=O)C(CC(C)C)NC(=O)OCc1ccccc1 (centres unmarked) [Compound 23] | 224 | 60 | 605 | 22 | 10
19 | Cc1cc(CCCCCCCOc2ccc(C3=NCCO3)cc2)on1 [WIN 51711, reference compound] | > 60 |  |  | > 77 | 0.78
20 | Cc1cc(CCCCCCCOc2ccc(C3=N[C@@H](C)CO3)cc2)on1 [WIN 52084, reference compound] | > 10 |  |  | > 143 | 0.07
